Test results as given in patent US9993444B2, “Use of beta-adrenergic inverse agonists for smoking cessation” (INVION, INC., priority 2011, dated 2018).
Entries after “also recorded” stand apart in the source; their conditions may differ.

How the values were obtained:
[1] = acute administration; U.S. Pat. No. 6,284,800; cited from earlier work
β-adrenergic receptor = settings: cited from earlier work
asthmatic mice [2] = test: Lung histology (periodic acid-Schiff stain, goblet cells/mucus) after chronic inverse agonist treatment of ovalbumin-sensitized and -challenged mice; format: in vivo, Balb/cJ mice
Method: (§1) Mice were made asthmatic by sensitization to the antigen ovalbumin. Balb/cJ mice aged 6 weeks (Jackson Animal Laboratory, Bar Harbor, Me.) were housed under specific pathogen-free conditions and fed a chicken ovalbumin-free diet. Mice were sensitized with subcutaneous injection of 25 μg of ovalbumin adsorbed to aluminum hydroxide on protocol days 2, 9, and 16. Subsequently, mice were given […] of saline solution containing 25 μg of ovalbumin intranasally, on a daily basis, from protocol days 23 through 27. A group of ovalbumin-sensitized saline-challenged mice serves as controls for systemic sensitization and respiratory challenges with ovalbumin. Prior to intranasal administrations, mice were sedated with halothane vapor. For the study of this Example, ovalbumin-sensitized and ovalbumin-challenged mice, and ovalbumin-sensitized and saline-challenged mice will be referred to as asthmatic mice and control mice, respectively.
(§2) Animals received drug treatment for 7 days from day 21 to 27 of the sensitization/challenging protocol; ICI-118,551 at 10 mg/kg, was administered 3 times a day subcutaneously by osmotic minipump (Alzet®, #2004, Durect Corporation, Cupertino, Calif.). ICI-118,551 was dissolved in 50% DMSO. […]

[3] = system: tracheas from asthmatic mice; settings: chronically treated asthmatic mice, excised tracheas; WO 02/29534; cited from earlier work
asthmatic mice [4] = test: Lung histology (hematoxylin-eosin) after chronic inverse agonist treatment of ovalbumin-sensitized and -challenged mice; format: in vivo, Balb/cJ mice; settings: ICI-118,551 10 mg/kg subcutaneously by osmotic minipump, 7 days (day 21 to 27)
Method: as §1, §2

[5] = system: sensitized and challenged mice; test: Airway hyperresponsiveness to methacholine in a mouse model of obstructive lung disease, chronic administration; format: in vivo; settings: for airway hyperresponsiveness: compared to untreated sensitized and challenged mice
From the text: Even though alprenolol is a β-adrenergic antagonist, it has partial agonist activity. Carvedilol is a β1/β2 non-selective adrenergic antagonist with α1-adrenergic antagonist activity.

patients with CHF = settings: cited from earlier work

CC(C)NC[C@@H](O)COc1cccc2ccccc12 [D-propranolol]
antigen-induced bronchoconstriction and airway hyperresponsiveness [1]: beneficial in inhibiting antigen-induced bronchoconstriction and reducing airway hyperresponsiveness
potency in inhibiting the β-adrenergic receptor relative to the L-form (β-adrenergic receptor; U.S. Pat. No. 5,116,867): 1/100
activity with respect to β-adrenergic receptors (β-adrenergic receptor; U.S. Pat. No. 6,284,800): inactive

Cc1ccc(OCC(O)C(C)NC(C)C)c2c1CCC2 (stereo not shown) [ICI 118,551]
appearance of lung epithelial cells, PAS stain (FIG. 6) (asthmatic mice [2]; ICI-118,551 10 mg/kg subcutaneously by osmotic minipump, 7 days (day 21 to 27)): appear substantially normal
transformation of lung epithelium from ciliated cells to mucus-producing goblet cells (FIGS. 1-6) (asthmatic mice [2]; chronic treatment): restores the airway epithelium to a normal healthy state; also recorded: substantially reversed the transformation of lung epithelium
rank of effectiveness on tracheal contraction in response to methacholine [3]: then ICI-118,551
appearance of lung epithelial cells, hematoxylin-eosin staining (FIG. 3) (asthmatic mice [4]): substantially returned to their normal appearance

CC(C)NC[C@H](O)COc1cccc2ccccc12 [L-form of propranolol, propranolol]
specific lung resistance [1]: increased specific lung resistance

C=CCc1ccccc1OCC(O)CNC(C)C (stereo not shown) [alprenolol]
airway hyperresponsiveness [5]: does not reduce airway hyperresponsiveness; also recorded: without any activity
rank of effectiveness on tracheal contraction in response to methacholine [3]: most effective compound

CC(C)(Cc1c[nH]c2ccccc12)NCC(O)COc1ccccc1C#N (stereo not shown) [bucindolol]
clinical outcome in congestive heart failure (mortality / benefit over placebo) (patients with CHF): failed to demonstrate any benefit over placebo

COc1ccccc1OCCNCC(O)COc1cccc2[nH]c3ccccc3c12 (stereo not shown) [carvedilol]
sensitivity of the responsiveness to methacholine [5]: shifts the sensitivity of the responsiveness to methacholine to lower concentrations
airway hyperresponsiveness [5]: does reduce airway hyperresponsiveness
rank of effectiveness on tracheal contraction in response to methacholine [3]: followed by carvedilol
clinical outcome in congestive heart failure (mortality / benefit over placebo) (patients with CHF): significant mortality reduction

COCCc1ccc(OCC(O)CNC(C)C)cc1 (stereo not shown) [metoprolol]
clinical outcome in congestive heart failure (mortality / benefit over placebo) (patients with CHF): significant mortality reduction
